Measurements published in ChEMBL document CHEMBL3108682, “Piperazine oxadiazole inhibitors of acetyl-CoA carboxylase” (J Med Chem, 2013).

How the values were obtained:
Assay type in all cases: ADME, organism-based
[1] = Volume of distribution at steady state in C57BL6 mouse at 2 mg/kg, iv; design: dose 2 mg/kg, route intravenous; settings: in vivo, read-out: Vdss
[2] = Cmax in C57BL6 mouse at 5 mg/kg, po; design: dose 5 mg/kg, route oral; settings: in vivo
[3] = Oral bioavailability in C57BL6 mouse at 5 mg/kg; settings: in vivo
[4] = system: Plasma; test: Fraction unbound in C57BL6 mouse plasma at 25 mg/kg, po after 12 hrs; design: dose 25 mg/kg, route oral; settings: in vivo
[5] = system: Plasma; test: Fraction unbound in C57BL6 mouse plasma at 25 mg/kg, po after 1 hr; design: dose 25 mg/kg, route oral; settings: in vivo
[6] = system: Plasma; test: Fraction unbound in C57BL6 mouse plasma at 25 mg/kg, po after 8 hrs; design: dose 25 mg/kg, route oral; settings: in vivo
[7] = Volume of distribution at steady state in Sprague-Dawley rat at 2 mg/kg, iv; design: dose 2 mg/kg, route intravenous; settings: in vivo, read-out: Vdss
[8] = system: Plasma; test: Fraction unbound in C57BL6 mouse plasma at 50 mg/kg, po; design: dose 50 mg/kg, route oral; settings: in vivo
[9] = Oral bioavailability in Sprague-Dawley rat at 5 mg/kg; settings: in vivo
[10] = Cmax in Sprague-Dawley rat at 5 mg/kg, po; design: dose 5 mg/kg, route oral; settings: in vivo
[11] = system: Plasma; test: Fraction unbound in C57BL6 mouse plasma at 15 mg/kg, po; design: dose 15 mg/kg, route oral; settings: in vivo
[12] = system: Plasma; test: Fraction unbound in C57BL6 mouse plasma at 25 mg/kg, po after 4 hrs; design: dose 25 mg/kg, route oral; settings: in vivo
[13] = system: Plasma; test: Fraction unbound in C57BL6 mouse plasma at 35 mg/kg, po; design: dose 35 mg/kg, route oral; settings: in vivo
[14] = system: Plasma; test: Fraction unbound in C57BL6 mouse plasma at 100 mg/kg, po; design: dose 100 mg/kg, route oral; settings: in vivo
[15] = system: Plasma; test: Fraction unbound in C57BL6 mouse plasma at 25 mg/kg, po; design: dose 25 mg/kg, route oral; settings: in vivo
[16] = AUC (0 to 24 hrs) in Sprague-Dawley rat at 5 mg/kg, po; design: time < 24 hr, dose 5 mg/kg, route oral; settings: plasma

Row | SMILES | Vd [1] [L/kg] | Cmax [2] [nM] | bioavailability [3] [%] | Cp(f) [4] [nM] | Cp(f) [5] [nM] | Cp(f) [6] [nM] | Vd [7] [L/kg] | Cp(f) [8] [nM] | bioavailability [9] [%] | Cmax [10] [nM] | Cp(f) [11] [nM] | Cp(f) [12] [nM] | Cp(f) [13] [nM] | Cp(f) [14] [nM] | Cp(f) [15] [nM] | AUC(0-t) at 24 h [16] [ng·h/mL]
1 | CCOc1ccc(N2CCN(c3noc(C4(NC(C)=O)CCC4)n3)[C@@H](C)C2)c(C)c1 | 0.98 | 5800 | 46 | 498 | 1165 | 882 | 1.8 | 988 | 34 | 1200 | 95 | 1142 | 618 | 1482 | 708 | –
2 | CCOc1ccc(N2CCN(c3noc(CC)n3)[C@@H](C)C2)c(C)c1 | – | – | – | – | – | – | 12.8 | – | 17 | 380 | – | – | – | – | – | 291
